The values below come from ChEMBL document CHEMBL1144044, “Synthesis and biological activity of quinolinone and dihydroquinolinone p38 MAP kinase inhibitors” (Bioorg Med Chem Lett, 2008).

Structures are written as SMILES.

Assay [1] addresses T1, Mitogen-activated protein kinase 14 (Homo sapiens, UniProt Q16539). Kind of assay: Inhibition of p38alpha.
Assay [2] has as its target T1, Mitogen-activated protein kinase 14. Nature of the assay: Inhibition of p38-alpha at 100 nM.
For assay [3] the target is unchanged. Nature of the assay: Inhibition of p38-alpha at 1250 nM.
Assay [4] shares this target. Kind of assay: Inhibition of p38-alpha by whole blood assay.
The target is the same in assay [5]. Kind of assay: Inhibition of p38-alpha at 1000 nM.
Assay [6] has the same target. Nature of the assay: Inhibition of p38-alpha at 10 uM by whole blood assay.

In general, IC50 refers to the concentration that inhibits the measured activity by half. Broadly, the inhibition is the share of the control response that was lost under treatment. A higher inhibition goes with a response far below the control.

T1 sequence (Q16539 whole entry): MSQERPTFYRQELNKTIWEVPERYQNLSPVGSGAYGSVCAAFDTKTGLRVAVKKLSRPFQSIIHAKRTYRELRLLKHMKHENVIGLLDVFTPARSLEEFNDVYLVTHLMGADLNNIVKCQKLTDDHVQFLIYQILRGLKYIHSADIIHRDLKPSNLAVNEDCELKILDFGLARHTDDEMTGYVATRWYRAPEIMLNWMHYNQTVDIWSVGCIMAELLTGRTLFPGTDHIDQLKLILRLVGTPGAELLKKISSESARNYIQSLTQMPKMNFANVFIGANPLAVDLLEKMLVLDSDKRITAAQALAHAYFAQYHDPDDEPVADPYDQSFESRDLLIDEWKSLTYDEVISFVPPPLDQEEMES

Consider `NC1Cc2c(-c3ccccc3Cl)cccc2N(c2c(Cl)cccc2Cl)C1=O` (stereo unspecified), for which, in assay [1], the IC50 entry is “Not Active”.

On to `COC1Cc2c(-c3ccccc3Cl)cccc2N(c2c(Cl)cccc2Cl)C1=O` (stereo unspecified), for which, in assay [1], the IC50 entry is “Not Active”.

Turning to `O=c1ccc2c(-c3ccccc3Cl)cccc2n1-c1c(Cl)cccc1Cl`, the IC50 in assay [1] (read-out: IC50) turned out to be 6 nM.

With `COc1cc(-c2ccccc2Cl)c2cc(OC)c(=O)n(-c3c(Cl)cccc3Cl)c2c1`, the inhibition in assay [2] was found to be 29%.

Take `COc1cc(-c2ccccc2Cl)c2c(c1)N(c1c(Cl)cccc1Cl)C(=O)C(OC)C2` (stereo unspecified): the inhibition in assay [3] worked out at 63%.

Regarding `C[C@H](N)C(=O)NCCOc1cc(-c2ccccc2Cl)c2ccc(=O)n(-c3c(Cl)cccc3Cl)c2c1`, the values for the concentration for half-maximal inhibition (IC50) in assay [4] and in assay [1] (read-out: IC50) were 32 nM and 0.16 nM, respectively.

For `O=c1ccc2c(-c3cccnc3)cccc2n1-c1c(Cl)cccc1Cl`, in assay [1] (read-out: IC50), the IC50 is 460 nM.

Consider `O=c1ccc2c(-c3ccccn3)cccc2n1-c1c(Cl)cccc1Cl`, for which the IC50 in assay [1] (read-out: IC50) stood at 350 nM.

For `CC(C)(N)C(=O)NCCOc1cc(-c2ccccc2Cl)c2ccc(=O)n(-c3c(Cl)cccc3Cl)c2c1`, the IC50 came out at 28 nM in assay [4] and 0.12 nM in assay [1] (read-out: IC50).

As to `COc1cc(-c2ccccc2Cl)c2cc(O)c(=O)n(-c3c(Cl)cccc3Cl)c2c1`, in assay [1] (read-out: IC50), the IC50 was 28 nM.

For `COc1cc(-c2ccccc2Cl)c2c(c1)N(c1c(Cl)cccc1Cl)C(=O)C(O)C2` (stereo unspecified), the IC50 in assay [1] (read-out: IC50) amounted to 9 nM.

Regarding `C[C@@H](N)C(=O)NCCOc1cc(-c2ccccc2Cl)c2ccc(=O)n(-c3c(Cl)cccc3Cl)c2c1`, the figures for the IC50 in assay [4] and in assay [1] (read-out: IC50) were 47 nM and 0.2 nM, respectively.

Turning to `O=c1c(O)cc2c(-c3ccccc3Cl)cc(O)cc2n1-c1c(Cl)cccc1Cl`, the IC50 in assay [1] (read-out: IC50) turned out to be 5 nM.

In the case of `NC(CO)C(=O)NCCOc1cc(-c2ccccc2Cl)c2ccc(=O)n(-c3c(Cl)cccc3Cl)c2c1` (stereo unspecified), the IC50 turned out to be 200 nM in assay [4] and 0.5 nM in assay [1] (read-out: IC50).

Take `O=C1C(O)Cc2c(-c3ccccc3Cl)cc(O)cc2N1c1c(Cl)cccc1Cl` (stereo unspecified): in assay [1] (read-out: IC50), the IC50 amounted to 4 nM.

Turning to `NCC(=O)NCCOc1cc(-c2ccccc2Cl)c2ccc(=O)n(-c3c(Cl)cccc3Cl)c2c1`, the IC50 was found to be 80 nM in assay [4] and 0.3 nM in assay [1] (read-out: IC50).

For the compound `O=C(NCCOc1cc(-c2ccccc2Cl)c2ccc(=O)n(-c3c(Cl)cccc3Cl)c2c1)[C@H]1CCCN1`, the values for the IC50 in assay [4] and in assay [1] (read-out: IC50) were 73 nM and 0.9 nM, respectively.

On to `[N-]=[N+]=NC1Cc2c(-c3ccccc3Cl)cccc2N(c2c(Cl)cccc2Cl)C1=O` (stereo unspecified), for which the inhibition in assay [2] came to 15%.

`O=c1ccc2c(-c3ccccc3Cl)cc(O)cc2n1-c1c(Cl)cccc1Cl`: in assay [1] (read-out: IC50), the IC50 was 0.7 nM.

For the compound `O=c1ccc2c(-c3ccncc3)cccc2n1-c1c(Cl)cccc1Cl`, the inhibition in assay [5] worked out at 58%.

Take `O=C1C(O)Cc2c(-c3ccccc3Cl)cccc2N1c1c(Cl)cccc1Cl` (stereo unspecified): the IC50 in assay [1] (read-out: IC50) is 27.5 nM.

As for `COc1cc(-c2ccccc2Cl)c2ccc(=O)n(-c3c(Cl)cccc3Cl)c2c1`, the IC50 in assay [1] (read-out: IC50) was determined as 1.5 nM. Besides, the inhibition in assay [6] was 75%.

`NCCC(=O)NCCOc1cc(-c2ccccc2Cl)c2ccc(=O)n(-c3c(Cl)cccc3Cl)c2c1`: the IC50 is 130 nM in assay [4] and 0.57 nM in assay [1] (read-out: IC50).

As for `NC1(C(=O)NCCOc2cc(-c3ccccc3Cl)c3ccc(=O)n(-c4c(Cl)cccc4Cl)c3c2)CC1`, the IC50 in assay [4] came out at 1010 nM; in assay [1] (read-out: IC50), 1.5 nM.

With `O=C(NCCOc1cc(-c2ccccc2Cl)c2ccc(=O)n(-c3c(Cl)cccc3Cl)c2c1)[C@@H]1CCCN1`, the IC50 in assay [4] stood at 87 nM; in assay [1] (read-out: IC50) it was 0.75 nM.

As to `O=c1ccc2c(-c3ccccc3)cccc2n1-c1c(Cl)cccc1Cl`, the IC50 in assay [1] (read-out: IC50) was 13.4 nM.
